Experimental data as given in ChEMBL document CHEMBL1144583, “Specificities of acetoxy derivatives of coumarins, biscoumarins, chromones, flavones, isoflavones and xanthones for acetoxy drug: protein transacetylase” (2007).

Columns and labels:
[1] = organism: Rattus norvegicus; experiment: Effect on TAase activity assessed as activation of liver microsomal NADPH cytochrome P450 at 5 uM
[2] = organism: Rattus norvegicus; experiment: Effect on TAase activity assessed as inhibition of GST in liver microsome at 50 uM; type: microsomes
[3] = organism: Rattus norvegicus; experiment: Inhibition of liver microsomal EROD at 25 uM
[4] = tested on: Bone marrow cell; experiment: Inhibition of micronuclei formation in benzene-induced in Wistar Albino rat bone marrow cells at 300 mg/ kg, ip after 1 hr; type: functional; details: route intraperitoneal

Row | Activity [1] [%] | inhibition [2] [%] | inhibition [3] [%] | Structure (SMILES) | inhibition in vivo at 300 mg/kg [4] [%]
1 | 21.7 | 12.7 | 41.9 | CC(=O)Oc1ccc(OC(C)=O)c2c(=O)c3ccccc3oc12 | 
2 | 14.5 | 6.89 | 32.4 | CC(=O)Oc1ccc2c(=O)c(-c3ccccc3)coc2c1OC(C)=O | 
3 | 5.06 | 3.43 |  | CC(=O)Oc1cccc2oc3ccccc3c(=O)c12 | 
4 | 27.6 | 15.3 |  | CC(=O)Oc1ccc2c(=O)c(C(C)=O)c(C)oc2c1OC(C)=O | 
5 | 7.1 | 3.1 | 16.1 | CC(=O)Oc1ccc2c(=O)c(-c3ccccc3)c(C)oc2c1 | 
6 | 25.8 | 15.2 | 58.4 | CC(=O)Oc1ccc2c(C)cc(=O)oc2c1OC(C)=O | 65
7 | 15.9 | 10.4 |  | CC(=O)Oc1ccc2c(C(C/C=C/C#CC(C)(C)C)S(=O)(=O)c3ccccc3)cc(=O)oc2c1OC(C)=O (stereo unspecified) | 

The next lines start with the compound.

Row | Structure (SMILES) | Activity [1] [%] | inhibition [2] [%] | inhibition [3] [%] | inhibition in vivo at 300 mg/kg [4] [%]
8 | CC(=O)Oc1cc(C(C)=O)c2c(C)cc(=O)oc2c1 | 15.6 | 7.65 |  | 
9 | CC(=O)Oc1ccc2c(OC(C)=O)c(Cc3c(OC(C)=O)c4ccc(OC(C)=O)c(OC(C)=O)c4oc3=O)c(=O)oc2c1OC(C)=O | 17.2 | 10.1 | 39.3 | 37.9
10 | CCCCCCC(c1cc(=O)oc2cc(OC(C)=O)ccc12)S(=O)(=O)c1ccccc1 (stereo unspecified) | 7.17 | 3.96 |  | 
11 | CC(=O)Oc1ccc2c(=O)cc(-c3ccccc3)oc2c1 | 6.9 | 3.6 | 16.4 | 
12 | CC(=O)Oc1cc2c(=O)oc3c(OC(C)=O)c(OC(C)=O)cc4c(=O)oc(c1OC(C)=O)c2c34 [ELLAGIC ACID TETRAACETATE] | 16.1 | 10.1 |  | 39.6
13 | CC(=O)Oc1cc(OC(C)=O)c2c(=O)c(C(C)=O)c(C)oc2c1 | 16.7 | 6.68 |  | 
14 | CC(=O)Oc1ccc2c(C)cc(=O)oc2c1 | 14.5 | 7.1 | 30.8 | 44.6
15 | CC(=O)Oc1ccc2c(c1)OC(=O)CC2c1ccccc1 (stereo unspecified) | 6.77 | 3.31 |  | 
16 | CC(=O)Oc1ccc2c(C(C/C=C/C#CC(C)(C)C)S(=O)(=O)c3ccccc3)cc(=O)oc2c1 (stereo unspecified) | 7.6 | 4.01 |  | 
17 | CC(=O)Oc1ccc2c(=O)c(C(C)=O)c(C)oc2c1 | 15.1 | 6.03 | 31.5 | 
